*1 amine or outer side, *2 acyl side, *3 side chain or, on linkers, in order; H or OH if unused. Where a SMILES comes first, the peptide text is derived from it. Bridges are numbered along the chain shown (N, C = ends). Roman numbers before positions name the chains, in order. Where no end group is shown, it is not given here. [ ]: non-standard residue; d: D form. PEG8 = NCCOCCOCCOCCOCCOCCOCCOCCOCCC(=O)O; 3Pal = N[C@@H](Cc1cccnc1)C(=O)O; X2 = O=C(CCOCCC(=O)[*:2])[*:1]
Tests used:
[1] = molecular target: T1, TrkB (CellSensor TrkB-NFAT-bla CHO-K1 Cell) (Homo sapiens, UniProt Q16620); assay: pERK1/2 AlphaLISA assay (phosphorylation of ERK) for TrkB agonist activity; assay type: cell-based; settings: class = peptide concentration giving 50% or more activity; BDNF maximum signal = 100%, no stimulation = 0%; 15 minutes of stimulation
T1 construct: host or cells: CHO-K1 (CellSensor TrkB-NFAT-bla CHO-K1)
T1 sequence (Q16620 32-822): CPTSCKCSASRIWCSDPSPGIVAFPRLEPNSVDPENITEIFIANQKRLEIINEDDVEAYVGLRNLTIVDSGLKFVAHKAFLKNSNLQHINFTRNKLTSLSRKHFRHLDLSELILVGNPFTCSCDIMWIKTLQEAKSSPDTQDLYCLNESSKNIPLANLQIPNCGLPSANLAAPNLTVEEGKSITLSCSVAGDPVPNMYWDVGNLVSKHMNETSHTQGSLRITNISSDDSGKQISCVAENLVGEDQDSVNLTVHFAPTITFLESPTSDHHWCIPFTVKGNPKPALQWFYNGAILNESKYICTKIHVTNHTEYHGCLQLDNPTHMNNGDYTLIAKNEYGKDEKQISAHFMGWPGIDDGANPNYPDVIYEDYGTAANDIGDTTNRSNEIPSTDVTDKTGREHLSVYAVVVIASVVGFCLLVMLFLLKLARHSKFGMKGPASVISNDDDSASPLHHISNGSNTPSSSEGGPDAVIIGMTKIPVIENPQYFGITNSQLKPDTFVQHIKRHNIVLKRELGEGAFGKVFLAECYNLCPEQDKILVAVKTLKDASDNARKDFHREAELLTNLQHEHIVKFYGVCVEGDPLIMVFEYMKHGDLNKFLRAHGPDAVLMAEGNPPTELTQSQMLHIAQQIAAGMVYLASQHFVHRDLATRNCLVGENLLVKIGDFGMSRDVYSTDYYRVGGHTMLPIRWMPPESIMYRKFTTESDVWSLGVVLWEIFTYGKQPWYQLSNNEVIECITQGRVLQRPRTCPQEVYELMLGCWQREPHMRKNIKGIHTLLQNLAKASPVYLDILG
Outline: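 TrkB-NFAT-bla CHO-K1 cells were starved 4 h in 0.1% BSA medium and then stimulated 15 min with peptide or BDNF; p-ERK1/2 (Thr202/Tyr204) in the lysate was read by AlphaLISA SureFire. Activity % was scaled to the BDNF maximum (100%) and no stimulation (0%); A = ≥50% at 1 nM, B = ≥50% at 10 nM; curves were 8 points, 4-fold dilutions from 100 nM.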

[2] = molecular target: T1, TrkB (CellSensor TrkB-NFAT-bla CHO-K1 Cell); assay: NFAT transcriptional reporter assay for TrkB agonist activity; assay type: cell-based; settings: class = peptide concentration giving 50% or more activity; BDNF maximum signal = 100%, no stimulation = 0%; 5 hours culture
Outline: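 CHO-K1 TrkB-NFAT-bla cells, 12,500 per well, treated overnight-seeded with peptide or BDNF for 5 h, then CCF4-AM substrate 2 h in the dark; 460/535 nm emission ratio. Activity scaled to maximal BDNF signal (100%) and unstimulated (0%); grades A/B/C mean ≥50% activity at 1, 10 or 100 nM.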

[3] = molecular target: TrkB (Homo sapiens, UniProt Q16620); assay: PathHunter eXpress TrkB Functional Assay (phosphorylation of TrkB); assay type: cell-based; settings: maximum signal induced by BDNF = 100%; stimulation for 3 hours
Sequence of TrkB (Q16620 32-822): as above
Outline: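 PathHunter TrkB cells, cultured 48 h, were stimulated 3 h with peptide or BDNF, then detection reagent added for 60 min at room temperature; luminescence read. Activity (%) scaled from unstimulated (0%) to maximal BDNF signal (100%); peptides tested over 0.006104-100 nM, 0.032-100 nM or 0.01-10 nM ranges.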

[4] = molecular target: TrkB of the cells of the PathHunter eXpress TrkB Functional Assay kit (DiscoverX) (UniProt Q16620 32-822, limits assumed); assay: cell-based or functional assay
Sequence of TrkB of the cells of the PathHunter eXpress TrkB Functional Assay kit (DiscoverX) (Q16620 32-822 limits assumed): as the sequence (Q16620 32-822) above

[5] = molecular target: Recombinant Human TrkB Fc Chimera Protein (R&D Systems) (human) (UniProt Q16620); assay: SPR (Biacore T200), TrkB-Fc captured on anti-human IgG (Fc) antibody, peptide complex as analyte, single cycle kinetics
Sequence of Recombinant Human TrkB Fc Chimera Protein (R&D Systems) (human) (Q16620 32-430, change not shown): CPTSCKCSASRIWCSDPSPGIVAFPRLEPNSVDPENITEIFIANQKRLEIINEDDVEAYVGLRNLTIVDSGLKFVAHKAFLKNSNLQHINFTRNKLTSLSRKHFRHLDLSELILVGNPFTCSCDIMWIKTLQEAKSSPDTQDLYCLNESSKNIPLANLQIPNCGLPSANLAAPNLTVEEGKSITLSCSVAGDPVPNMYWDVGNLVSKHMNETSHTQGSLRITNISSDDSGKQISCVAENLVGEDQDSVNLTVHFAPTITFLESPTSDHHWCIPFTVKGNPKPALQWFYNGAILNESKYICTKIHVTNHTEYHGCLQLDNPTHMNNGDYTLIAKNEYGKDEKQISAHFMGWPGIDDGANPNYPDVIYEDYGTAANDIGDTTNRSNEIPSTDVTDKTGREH

Molecule: CC(C)[C@@H]1NC(=O)[C@H](Cc2cccnc2)NC(=O)[C@H](CCC(=O)O)NC(=O)[C@H](CO)NC(=O)[C@H](Cc2ccc(O)cc2)NC(=O)[C@H]([C@@H](C)O)NC(=O)[C@@H]2CCCN2C(=O)[C@H](Cc2c[nH]c3ccccc23)NC(=O)[C@H](Cc2cccnc2)NC(=O)[C@H](Cc2ccc(O)cc2)NC(=O)[C@@H]2CCCN2C(=O)[C@H](CO)NC(=O)[C@H](Cc2ccccc2)NC(=O)CSC[C@@H](C(=O)NCC(=O)NCCOCCOCCOCCOCCOCCOCCOCCOCCC(=O)N[C@@H](CCCCNC(=O)CCOCCC(=O)NCCCC[C@H](NC(=O)CCOCCOCCOCCOCCOCCOCCOCCOCCNC(=O)CNC(=O)[C@@H]2CSCC(=O)N[C@@H](Cc3ccccc3)C(=O)N[C@@H](CO)C(=O)N3CCC[C@H]3C(=O)N[C@@H](Cc3ccc(O)cc3)C(=O)N[C@@H](Cc3cccnc3)C(=O)N[C@@H](Cc3c[nH]c4ccccc34)C(=O)N3CCC[C@H]3C(=O)N[C@@H]([C@@H](C)O)C(=O)N[C@@H](Cc3ccc(O)cc3)C(=O)N[C@@H](CO)C(=O)N[C@@H](CCC(=O)O)C(=O)N[C@@H](Cc3cccnc3)C(=O)N[C@@H](C(C)C)C(=O)N[C@@H](CCC(=O)O)C(=O)N2)C(N)=O)C(N)=O)NC(=O)[C@H](CCC(=O)O)NC1=O [compound 33] (I: {CH2CO}-FSPY[3Pal]WPTYSE[3Pal]VECG[PEG8]K-NH2 / II: {CH2CO}-FSPY[3Pal]WPTYSE[3Pal]VECG[PEG8]K-NH2; linker I:18-II:18 via X2; thioether I:N-I:15, II:N-II:15)
- pERK (aLISA) Assay Results [1]: A (The peptide with 50% or more activity when 1 nM of the peptide was added was evaluated as A)
- NFAT Assay Results [2]: A (The peptide with 50% or more activity when 1 nM of the peptide was added was evaluated as A)
- Emax [3]: 96%

Molecule: CC(C)[C@@H]1NC(=O)[C@H](Cc2cccnc2)NC(=O)[C@H](CCC(=O)O)NC(=O)[C@H](CO)NC(=O)[C@H](Cc2ccc(O)cc2)NC(=O)[C@H]([C@@H](C)O)NC(=O)[C@@H]2CCCN2C(=O)[C@H](Cc2c[nH]c3ccccc23)NC(=O)[C@H](Cc2cccnc2)NC(=O)[C@H](Cc2ccc(O)cc2)NC(=O)[C@@H]2CCCN2C(=O)[C@H](CCC(=O)O)NC(=O)[C@H](Cc2ccccc2)NC(=O)CSC[C@@H](C(=O)NCC(=O)NCCOCCOCCOCCOCCOCCOCCOCCOCCC(=O)NCCCC[C@H](NC(=O)CCOCCOCCOCCOCCOCCOCCOCCOCCNC(=O)CNC(=O)[C@@H]2CSCC(=O)N[C@@H](Cc3ccccc3)C(=O)N[C@@H](CCC(=O)O)C(=O)N3CCC[C@H]3C(=O)N[C@@H](Cc3ccc(O)cc3)C(=O)N[C@@H](Cc3cccnc3)C(=O)N[C@@H](Cc3c[nH]c4ccccc34)C(=O)N3CCC[C@H]3C(=O)N[C@@H]([C@@H](C)O)C(=O)N[C@@H](Cc3ccc(O)cc3)C(=O)N[C@@H](CO)C(=O)N[C@@H](CCC(=O)O)C(=O)N[C@@H](Cc3cccnc3)C(=O)N[C@@H](C(C)C)C(=O)N[C@@H](CO)C(=O)N2)C(N)=O)NC(=O)[C@H](CO)NC1=O [compound 18] (I: {CH2CO}-FEPY[3Pal]WPTYSE[3Pal]VSCG[PEG8]K-NH2 / II: {CH2CO}-FEPY[3Pal]WPTYSE[3Pal]VSCG[PEG8]; amide I:18-II:C (inferred); thioether I:N-I:15, II:N-II:15 (inferred))
- pERK (aLISA) Assay Results [1]: A (The peptide with 50% or more activity when 1 nM of the peptide was added was evaluated as A)
- NFAT Assay Results [2]: A (The peptide with 50% or more activity when 1 nM of the peptide was added was evaluated as A)
- Emax [3]: 93%

Molecule: {CH2CO}-FSPY[3Pal]WPTYSE[3Pal]VECG (thioether N-15; also: homodimer via linker No. 7 (K-cPEG13c-K) at Gly16) [peptide complex, dimer structure No. 48 (peptide sequence No. 15 + linker structure No. 7)]
- PathHunter EC50 [4]: 421 pM
- PathHunter Emax (BDNF maximum = 100%) [4]: 102%
- koff [5]: < 1e-05 s⁻¹

Molecule: {CH2CO}-FEPY[3Pal]WPTYSE[3Pal]VECG (thioether N-15; also: homodimer via linker No. 7 (K-cPEG13c-K) at Gly16) [peptide complex, dimer structure No. 56 (peptide sequence No. 17 + linker structure No. 7)]
- PathHunter EC50 [4]: 358 pM
- PathHunter Emax (BDNF maximum = 100%) [4]: 93%
- koff [5]: < 1e-05 s⁻¹
